Reference: patent US10577399B2, “Modified lantibiotics and methods of making and using the modified lantibiotics” (priority 2016, dated 2020)
No end group written: not given here.

What was measured:
M. luteus ATCC 10240 [1] = format: cell-based, Micrococcus luteus; conditions: Table 11
Procedure: (§1) Minimum Inhibitory Concentrations (MICs) were determined according to previously published protocol^31. A stock solution of the antibiotics tested was first suspended in 50% acetonitrile (ACN) at a concentration 640 μg/mL. This stock was subsequently diluted 2-fold until a final concentration 0.156 μg/mL was reached. Subsequently, 10 μl of each dilution was placed into a well on a 96 well microtiter plate. M. luteus ATCC 10240, S. pneumoniae, and B. subtilis PY79 were grown overnight in THyex at 37° C. Cultures were diluted in the morning to 0.1 OD600 and allowed to grow to 0.6 OD600. This culture was diluted a 100-fold in fresh THyex media and then 400 μl of this culture was added to 10 mL of fresh THyex. The suspension contains approximately 10^5 colony forming units (CFUs). The bacterial suspension (190 μL) was added to each well containing 10 μL of antibiotic suspension or solvent blank. […] Following the 15 minute pretreatment, 190 μL was added to each well as described above. The MIC is described as the […] concentration of antibiotic that prevented visible growth after 24 hours.
FIG. 11 illustrates the bioactivity of various core peptide mutants of mutacin 1130. The activity of the core mutant peptides is expressed as a ratio of the area of the zone of inhibition of each mutant strain to the area of the zone of inhibition of the wild-type strain against indicator strain of Micrococcus luteus. […] The deferred antagonism assay is an overlay assay of the indicator strain onto plates containing heat killed colonies of the mutacin producer strain after growing overnight. Core peptide mutants having inhibitory activity were isolated and the purified products were further evaluated by a standard minimum inhibitory concentration (MIC) assay.

S. pneumoniae ATCC 27336 = format: cell-based, Streptococcus pneumoniae; conditions: Table 11
Procedure: as §1, with “hours. […]” for “hours.”

S. pneumoniae AI8 = test: MIC against clinical S. pneumoniae isolate AI8; format: cell-based, Streptococcus pneumoniae; conditions: 50% blood added
Procedure: as §1
(§2) Selective activity and stability of analogs: Several core peptide mutants are provided that have improved activity against our ATCC strain of S. pneumoniae. […]

S. pneumoniae AI16 = test: MIC against clinical S. pneumoniae isolate AI16; format: cell-based, Streptococcus pneumoniae; conditions: 50% blood added
Procedure: as §1, §2

M. luteus ATCC 10240 [2] = test: Deferred antagonism (overlay) assay, zone of inhibition; format: cell-based, Micrococcus luteus; conditions: relative to wild-type strain
Procedure: The deferred antagonism assay was performed as previously described^39. S. mutans strains were grown overnight in THyex broth at 37° C. The cultures were diluted to 0.1 OD OD600 and grown to mid-logarithmic phase before diluting to 0.05 OD600. Then, 2 μl of the cultures were spotted on THyex plates in duplicates of triplicates. The wild-type S. mutans JH1140 and S. mutans ΔmutA were used as positive and negative controls for activity, respectively. The plates were incubated for 18 hours in a candle jar at 37° C. After incubation, the strains were heat killed at 65° C. for 90 minutes. Fresh M. luteus grown overnight at 37° C. on THyex plates were used to inoculate pre-warmed THyex broth. The culture was grown to 0.6 to 0.8 OD before diluting to 0.2 OD600. The culture was further diluted 25-fold in melted (42° C.) THyex top agar. Approximately 5 mL of the top agar solution was spread on the heat killed bioassay plates and allowed to cool for 10 minutes. The plates were then placed in the incubator (at 37° C.) for 18 hours.
Streptococcus mutans ATCC 55676 (wild-type) and the mutants that were at an OD600 of 0.2 were spotted in triplicates on a pre-warmed THyex agar plate (150×15 mm) and allowed to dry. This assay was performed in this manner to ensure that each sample had the same colony size for comparing zones of inhibition. The plate was incubated for 24 hours then placed in an oven at 50° C. for thirty minutes to kill the bacteria before the indicator strain was overlaid. Heat killing the bacteria prevents any further antimicrobial compound production so that results seen are from single day incubation. Zone diameter was measured in millimeters across the plate and compared to wild-type (i.e. zone I for ATCC compared to zone I of Trp4Ala, etc.).

C. accolens ATCC 49725 = test: MIC/MLC assay against C. accolens ATCC 49725; format: cell-based; conditions: THyex broth with 1% Tween 80
S. pneumoniae AI11 = test: MIC against clinical S. pneumoniae isolate AI11; format: cell-based, Streptococcus pneumoniae; conditions: 50% blood added
Procedure: as §1, §2

C. accolens KPL 1818 = test: MIC/MLC assay against C. accolens KPL 1818; format: cell-based; conditions: THyex broth with 1% Tween 80
S. pneumoniae AI17 = test: MIC against clinical S. pneumoniae isolate AI17; format: cell-based, Streptococcus pneumoniae; conditions: 50% blood added
Procedure: as §1, §2

S. aureus ATCC 25923 = test: MIC/MLC assay against S. aureus; format: cell-based, Staphylococcus aureus; conditions: Table 11
S. pneumoniae AI14 = test: MIC against clinical S. pneumoniae isolate AI14; format: cell-based, Streptococcus pneumoniae; conditions: 50% blood added
Procedure: as §1, §2

T14A: core peptide mutant of mutacin 1140, Threonine 14 replaced by Alanine (FKSWSLCTPGCARAGSFNSYCC; UniProt O68586 42-63, looked up, variant T14A) [Mutant T14A]
M. luteus ATCC 10240 MIC (M. luteus ATCC 10240 [1]): 0.125 micrograms per milliliter | M. luteus ATCC 10240 MLC (M. luteus ATCC 10240 [1]): 0.125 micrograms per milliliter | S. pneumonia ATCC 27336 MIC (S. pneumoniae ATCC 27336): 0.5 micrograms per milliliter | S. pneumonia ATCC 27336 MLC (S. pneumoniae ATCC 27336): 0.5 micrograms per milliliter | MIC S. pneumoniae AI8 (S. pneumoniae AI8): 8 micrograms per milliliter | MIC S. pneumoniae AI16 (S. pneumoniae AI16): 8 micrograms per milliliter | zone of inhibition / inhibitory activity in deferred antagonism assay (M. luteus ATCC 10240 [2]): no change in activity | C. accolens ATCC 49725 MIC (C. accolens ATCC 49725): 0.25 micrograms per milliliter | C. accolens ATCC 49725 MLC (C. accolens ATCC 49725): 0.25 micrograms per milliliter | MIC S. pneumoniae AI11 (S. pneumoniae AI11): 4 micrograms per milliliter | C. accolens KPL 1818 MIC (C. accolens KPL 1818): 0.5 micrograms per milliliter | C. accolens KPL 1818 MLC (C. accolens KPL 1818): 2 micrograms per milliliter | MIC S. pneumoniae AI17 (S. pneumoniae AI17): 8 micrograms per milliliter | S. aureus ATCC 25923 MIC (S. aureus ATCC 25923): 8 micrograms per milliliter | S. aureus ATCC 25923 MLC (S. aureus ATCC 25923): 16 micrograms per milliliter | MIC S. pneumoniae AI14 (S. pneumoniae AI14): 2 micrograms per milliliter

T14G: core peptide mutant of mutacin 1140, Threonine 14 replaced by Glycine (FKSWSLCTPGCARGGSFNSYCC; not fully specified; ends and bridges not checked; UniProt O68586 42-63, looked up, variant T14G) [Mutant T14G]
M. luteus ATCC 10240 MIC (M. luteus ATCC 10240 [1]): 0.0625 micrograms per milliliter | M. luteus ATCC 10240 MLC (M. luteus ATCC 10240 [1]): 0.0625 micrograms per milliliter | S. pneumonia ATCC 27336 MIC (S. pneumoniae ATCC 27336): 0.5 micrograms per milliliter | S. pneumonia ATCC 27336 MLC (S. pneumoniae ATCC 27336): 0.5 micrograms per milliliter | MIC S. pneumoniae AI8 (S. pneumoniae AI8): 8 micrograms per milliliter | MIC S. pneumoniae AI16 (S. pneumoniae AI16): 8 micrograms per milliliter | C. accolens ATCC 49725 MIC (C. accolens ATCC 49725): 0.0625 micrograms per milliliter | C. accolens ATCC 49725 MLC (C. accolens ATCC 49725): 0.0625 micrograms per milliliter | MIC S. pneumoniae AI11 (S. pneumoniae AI11): 2 micrograms per milliliter | C. accolens KPL 1818 MIC (C. accolens KPL 1818): 0.25 micrograms per milliliter | C. accolens KPL 1818 MLC (C. accolens KPL 1818): 0.5 micrograms per milliliter | MIC S. pneumoniae AI17 (S. pneumoniae AI17): 8 micrograms per milliliter | S. aureus ATCC 25923 MIC (S. aureus ATCC 25923): >32 micrograms per milliliter | S. aureus ATCC 25923 MLC (S. aureus ATCC 25923): >32 micrograms per milliliter | MIC S. pneumoniae AI14 (S. pneumoniae AI14): 1 micrograms per milliliter
